Our source for the TGI and GI50 values is PubChem BioAssay (NCI).

Holding throughout (assay): DTP human tumour cell line panel, 48 h
Test [1] has as its system A498 renal.
Test [2] relates to ACHN renal.
Test [3] deals with KM12 colon.
Test [4] concerns MDA-MB-435.
In test [5] the test system is NCI-H226 lung.
For test [6], the system named is NCI/ADR-RES ovarian.
In test [7] the test system is SK-OV-3 ovarian.
Test [8] concerns SW-620 colon.
In test [9] the test system is TK-10 renal.
The subject of test [10] is HCC-2998 colon.

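Grown in 96-well plates, cells were treated for 48 hours with each compound at five concentrations. Insufficient inhibition: endpoint recorded as highest concentration tested. At the GI50, growth is halved. TGI marks complete inhibition of growth.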 Some results are limits rather than exact numbers.

A word on the TGI: it is the concentration at which net growth stops. Read a low TGI as greater sensitivity of the cells. As for `c1cc2c(c(NC3=NCCN3)c1)CCCC2`, the TGI in [1], in [2], in [3], in [4], in test [5] and in [6] was above 100 µM in each case. The TGI in [7], in test [8] and in [9] was above 100 µM in each case.
Consider `C=C1C(=O)C2(C)OC2(C)C1C(=O)O` (centres undefined), for which the TGI in [2], in test [10], in test [3], in test [4], in [5] and in test [6] was above 100 µM in each case. The TGI in test [7], in test [8] and in test [9] was above 100 µM throughout.
Regarding `CCCCC(C(=O)CCC(=O)Nc1ccc(Cl)cc1)C(=O)C(C)C` (centres undefined), the TGI in [1], in test [2], in [10], in test [3], in [5] and in [7] was above 100 µM in each case. Also, the TGI in test [8] and in test [9] was above 100 µM in each case.
Consider `ClCCCCOC1CCCCO1` (centres undefined), for which the TGI in [1], in [2], in test [10], in test [3], in test [5] and in test [7] was above 100 µM in each case. Moreover, the TGI in [8] and in test [9] was above 100 µM each time.
What is called GI50 is the concentration giving 50% growth inhibition. For the compound `N#Cc1c(N)c(C#N)c2c(c1-c1ccc(Cl)cc1)COc1ccc(F)cc1-2`, the GI50 in test [1] is 7.89 µM; in test [2] it was 19.7 µM; in test [3], 12.3 µM; in [4] it was above 50 µM; in [6] it was 30.6 µM; in test [7], above 50 µM. The GI50 was 22.5 µM in test [8] and 7.63 µM in test [9]. The TGI was 28 µM in test [1]; above 50 µM in test [2]; above 50 µM in test [3]; above 50 µM in test [4]; above 50 µM in [6]; above 50 µM in [7]. The TGI in test [8] is above 50 µM; in test [9], 29.9 µM.
For the compound `COc1c(C)c(O)c2c(c1C)OC(c1ccccc1)CC2=O` (centres undefined), the TGI in test [1], in [2], in [10], in [3], in [5] and in [7] was above 100 µM each time. Besides, the TGI in [8] and in [9] was above 100 µM each time.
As to `Nc1nc2ncn(CC(O)COC(=O)c3ccccc3)c2c(=O)[nH]1` (centres undefined), the TGI in [1], in test [2], in test [3], in test [5], in test [7] and in test [8] was above 100 µM throughout. This compound also gave a TGI in [9] above 100 µM.
Regarding `COC(=O)/C(=N/NC(C)(C)C)C(C(=O)OC)C(=O)C(=O)Nc1nc2ccc([N+](=O)[O-])cc2s1` (centres undefined), the TGI in [1], in test [2], in test [10], in test [3], in [5] and in test [7] was above 100 µM throughout. For the same compound, the TGI in test [8] and in test [9] was above 100 µM in each case.
As for `O=C(O)COc1ccc(C(=O)/C(SS/C(C(=O)c2ccc(OCC(=O)O)c(Cl)c2Cl)=C2\C=C(c3ccccc3Cl)SS2)=C2/C=C(c3ccccc3Cl)SS2)c(Cl)c1Cl`, the TGI is 88.7 µM in test [1]; above 68.9 µM in test [2]; above 100 µM in test [10]; above 71.4 µM in test [3]; 47.3 µM in test [5]; above 100 µM in [7]. In addition, the TGI in test [8] was above 56.5 µM; in test [9], above 95.7 µM.
With `Cc1[nH]n(-c2cccc(Cl)c2)c(=O)c1/C=C1\C=c2ccccc2=CC1=O`, the GI50 in test [1] was above 100 µM; in test [2], 17 µM; in test [3], above 100 µM; in test [4] it was above 100 µM; in test [6] it was above 100 µM; in test [7] it was 26.5 µM. In addition, the GI50 was above 100 µM in test [8] and 35 µM in test [9]. The TGI in [1], in [2], in test [3], in test [4], in test [6] and in test [7] was above 100 µM each time. Also, the TGI in [8] and in test [9] was above 100 µM each time.
As for `COC(=O)C1(O)c2ccccc2N=C2C1CCN2C` (centres undefined), the concentration for total growth inhibition (TGI) in test [1], in test [2], in [10], in test [3], in test [7] and in test [8] was above 100 µM in each case. This compound came in with a TGI in test [9] above 100 µM.
For `O=C1N=C(Nc2nc(-c3csc(NC4=NC(=O)/C(=C\c5ccc(Cl)cc5)S4)n3)cs2)S/C1=C/c1ccc(Cl)cc1`, the GI50 in test [2] was 11.2 µM; in [10], 13.3 µM; in test [3], 10.1 µM; in test [4] it was 12.8 µM; in [5] it was 3.79 µM; in test [6], 18.1 µM. The values for the GI50 in test [8] and in [9] were 39 µM and 8.44 µM, respectively. The TGI in test [2] was 48.5 µM; in test [10] it was 45.2 µM; in test [3] it was 35.6 µM; in [4] it was above 50 µM; in test [5] it was 22.3 µM; in [6], above 50 µM. In addition, the TGI in [8] is above 50 µM; in test [9] it was 25.6 µM.
Regarding `Fc1ccc(-c2nn3c(COc4ccc(Cl)cc4Cl)nnc3s2)cc1Oc1ccccc1`, the GI50 was 20.2 µM in test [1]; 14.1 µM in test [2]; 28.9 µM in [3]; 16.8 µM in test [4]; 21 µM in test [5]; 36.9 µM in test [8]. Moreover, the GI50 in [9] is 12.2 µM. Besides, the TGI in [1] was 40.6 µM; in [2] it was 27.3 µM; in test [3], 91.2 µM; in test [4], 50.8 µM; in test [5], 74 µM; in [8], above 100 µM. In test [9], this compound returned a TGI of 25.2 µM.
